Laboratory results published in patent US20220089638A1, “DITHIOCARBAMATE STAPLED PEPTIDES AND METHODS OF MAKING AND USE THEREOF” (UNIVERSITY OF MARYLAND, BALTIMORE, priority 2019, published 2022).
Where a SMILES comes first, the peptide text is derived from it. Bridges are numbered along the chain shown (N, C = ends). Where no end group is shown, it is not given here.

Tests used:
[1] = Circular dichroism spectroscopy, percent α-helix; type: physicochemical; conditions: CD spectroscopy
From the text: Circular Dichroism (CD) Spectroscopy.

cathepsin G = target: T1, cathepsin G (Homo sapiens, UniProt P08311); experiment: Proteolytic stability in the presence of cathepsin G; type: in vitro ADME; conditions: cathepsin G (25 μg/ml) in RPMI 1640; 100 μM peptide, 25 μg/mL cathepsin G, cell culture medium, room temperature
T1 sequence (P08311 21-244): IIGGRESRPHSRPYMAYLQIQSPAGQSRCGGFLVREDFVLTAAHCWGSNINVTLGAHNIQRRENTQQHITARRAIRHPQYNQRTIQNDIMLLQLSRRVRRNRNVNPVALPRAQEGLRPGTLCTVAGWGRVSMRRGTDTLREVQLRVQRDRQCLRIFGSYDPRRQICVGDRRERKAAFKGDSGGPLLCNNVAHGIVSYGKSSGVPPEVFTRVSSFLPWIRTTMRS

[2] = 25° C., PBS buffer, glutathione 10 mM, over 24 h
HCT116 p53^+/+ = experiment: Cell viability assay (CCK8), HCT116 p53+/+; type: cell-based, human; conditions: concentrations of up to 50 μM
HCT116 p53^+/+ cells = experiment: Cellular uptake by confocal microscopy; type: cell-based, human; conditions: FITC-labeled peptide, 20 μM, 4 h
Experimental: Cellular uptake of ^DTCPMI. […] Cells were then incubated with 20 μM FITC-^DTCPMI Ctrl. or FITC-^DTCPMI for 4 h. Cells were washed with Dulbecco's phosphate buffered saline, fixed with 4% (wt/vol) paraformaldehyde, finally incubated by DAPI to stain the cell nucleus. Imaged using an LSM 510 Zeiss Axiovert 200M (v4.0) confocal microscope. Images were analyzed using an LSM image browser.

HCT116 p53^−/− = experiment: Cell viability assay (CCK8), HCT116 p53-/-; type: cell-based, human; conditions: concentrations of up to 50 μM
[3] = target: T2, synthetic 24-108MDMX (p53-binding domain of MDMX) (UniProt O15151 24-108); experiment: FP competition: the peptide displaces TAMRA-PMI (10 nM) from MDMX (50 nM) [right panel]
T2 sequence (looked up): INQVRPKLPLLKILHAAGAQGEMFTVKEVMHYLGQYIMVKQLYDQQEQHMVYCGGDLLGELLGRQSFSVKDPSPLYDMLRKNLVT

[4] = target: T3, synthetic 25-109MDM2 (p53-binding domain of MDM2) (UniProt Q00987 25-109); experiment: FP competition: the peptide displaces TAMRA-PMI (10 nM) from MDM2 (50 nM) [left panel]
T3 construct: range 25-109

[5] = target: T2, synthetic 24-108MDMX (p53-binding …); experiment: FP competition: the peptide displaces TAMRA-PMI (10 nM) from MDMX (50 nM)
[6] = target: T3, synthetic 25-109MDM2 (p53-binding …); experiment: FP competition: the peptide displaces TAMRA-PMI (10 nM) from MDM2 (50 nM)
[7] = target: T3, synthetic 25-109MDM2 (p53-binding …); experiment: SPR competition in solution: MDM2 at 25 nM incubated with the peptide, free MDM2 read on a chip with immobilised 15-29p53
[8] = target: T2, synthetic 24-108MDMX (p53-binding …); experiment: SPR competition in solution: MDMX at 100 nM incubated with the peptide, free MDMX read on a chip with immobilised 15-29p53
[9] = target: T3, synthetic 25-109MDM2 (p53-binding …); experiment: SPR competition in solution: MDM2 at 25 nM incubated with the peptide, free MDM2 read on a chip with immobilised 15-29p53; remark: listed apart in the source
[10] = target: T3, synthetic 25-109MDM2 (p53-binding …); experiment: FP competition: the peptide displaces TAMRA-PMI (10 nM) from MDM2 (50 nM); remark: listed apart in the source
[11] = target: T2, synthetic 24-108MDMX (p53-binding …); experiment: SPR competition in solution: MDMX at 100 nM incubated with the peptide, free MDMX read on a chip with immobilised 15-29p53; remark: listed apart in the source

CC(=O)N[C@H]1CCCCNC(=S)SC[C@@H](C(=O)N[C@@H](Cc2ccc(O)cc2)C(=O)N[C@@H](Cc2c[nH]c3ccccc23)C(=O)N[C@@H](CC(N)=O)C(=O)N[C@@H](CC(C)C)C(=O)N[C@@H](CC(C)C)C(=O)N[C@@H](CO)C(=O)N2CCC[C@H]2C(N)=O)NC(=O)[C@H](C)NC(=O)[C@H](Cc2ccccc2)NC(=O)[C@H](CO)NC1=O [PMI(1,5)-a]
α-helix (%) ([1]; Table 3): 36%
α-helix (%) ([1]; Table 7): 6.50%

CC(=O)N[C@H]1CSC(=S)NCCCC[C@@H](C(=O)N[C@@H](Cc2ccc(O)cc2)C(=O)N[C@@H](Cc2c[nH]c3ccccc23)C(=O)N[C@@H](CC(N)=O)C(=O)N[C@@H](CC(C)C)C(=O)N[C@@H](CC(C)C)C(=O)N[C@@H](CO)C(=O)N2CCC[C@H]2C(N)=O)NC(=O)[C@H](C)NC(=O)[C@H](Cc2ccccc2)NC(=O)[C@H](CO)NC1=O [PMI(1,5)-b]
α-helix (%) ([1]; Table 3): 7.6%
α-helix (%) ([1]; Table 7): 8.38%

CC(=O)N[C@H](C(=O)N[C@H]1CCCCNC(=S)SC[C@@H](C(=O)N[C@@H](Cc2c[nH]c3ccccc23)C(=O)N[C@@H](CC(N)=O)C(=O)N[C@@H](CC(C)C)C(=O)N[C@@H](CC(C)C)C(=O)N[C@@H](CO)C(=O)N2CCC[C@H]2C(N)=O)NC(=O)[C@H](CCC(=O)O)NC(=O)[C@H](C)NC(=O)[C@H](Cc2ccccc2)NC1=O)[C@@H](C)O [PMI(2,6)-a]
α-helix (%) ([1]; Table 3): 5.9%
α-helix (%) ([1]; Table 7): 15.3%

CC(=O)N[C@H](C(=O)N[C@H]1CSC(=S)NCCCC[C@@H](C(=O)N[C@@H](Cc2c[nH]c3ccccc23)C(=O)N[C@@H](CC(N)=O)C(=O)N[C@@H](CC(C)C)C(=O)N[C@@H](CC(C)C)C(=O)N[C@@H](CO)C(=O)N2CCC[C@H]2C(N)=O)NC(=O)[C@H](CCC(=O)O)NC(=O)[C@H](C)NC(=O)[C@H](Cc2ccccc2)NC1=O)[C@@H](C)O [PMI(2,6)-b]
α-helix (%) ([1]; Table 3): 3.1%
α-helix (%) ([1]; Table 7): 4.81%

CC(=O)N[C@H](C(=O)N[C@@H](CO)C(=O)N[C@@H](Cc1ccccc1)C(=O)N[C@H]1CCCCNC(=S)SC[C@@H](C(=O)N[C@@H](CC(C)C)C(=O)N[C@@H](CC(C)C)C(=O)N[C@@H](CO)C(=O)N2CCC[C@H]2C(N)=O)NC(=O)[C@H](Cc2c[nH]c3ccccc23)NC(=O)[C@H](Cc2ccc(O)cc2)NC(=O)[C@H](CCC(=O)O)NC1=O)[C@@H](C)O [PMI(4,8)-a]
α-helix (%) ([1]; Table 3): 25%
α-helix (%) ([1]; Table 7): 39.3%

CC(=O)N[C@H](C(=O)N[C@@H](CO)C(=O)N[C@@H](Cc1ccccc1)C(=O)N[C@H]1CSC(=S)NCCCC[C@@H](C(=O)N[C@@H](CC(C)C)C(=O)N[C@@H](CC(C)C)C(=O)N[C@@H](CO)C(=O)N2CCC[C@H]2C(N)=O)NC(=O)[C@H](Cc2c[nH]c3ccccc23)NC(=O)[C@H](Cc2ccc(O)cc2)NC(=O)[C@H](CCC(=O)O)NC1=O)[C@@H](C)O [PMI(4,8)-b]
α-helix (%) ([1]; Table 3): 5.6%
α-helix (%) ([1]; Table 7): 9.15%

CC(=O)N[C@H](C(=O)N[C@@H](CO)C(=O)N[C@@H](Cc1ccccc1)C(=O)N[C@@H](C)C(=O)N[C@H]1CCCCNC(=S)SC[C@@H](C(=O)N[C@@H](CC(C)C)C(=O)N[C@@H](CO)C(=O)N2CCC[C@H]2C(N)=O)NC(=O)[C@H](CC(N)=O)NC(=O)[C@H](Cc2c[nH]c3ccccc23)NC(=O)[C@H](Cc2ccc(O)cc2)NC1=O)[C@@H](C)O [PMI(5,9)-a]
α-helix (%) ([1]; Table 3): 0%
α-helix (%) ([1]; Table 7): 6.88%

CC(=O)N[C@H](C(=O)N[C@@H](CO)C(=O)N[C@@H](Cc1ccccc1)C(=O)N[C@@H](C)C(=O)N[C@H]1CSC(=S)NCCCC[C@@H](C(=O)N[C@@H](CC(C)C)C(=O)N[C@@H](CO)C(=O)N2CCC[C@H]2C(N)=O)NC(=O)[C@H](CC(N)=O)NC(=O)[C@H](Cc2c[nH]c3ccccc23)NC(=O)[C@H](Cc2ccc(O)cc2)NC1=O)[C@@H](C)O [PMI(5,9)-b]
α-helix (%) ([1]; Table 3): 0%
α-helix (%) ([1]; Table 7): 9.58%

CC(=O)N[C@H](C(=O)N[C@@H](CO)C(=O)N[C@@H](Cc1ccccc1)C(=O)N[C@@H](C)C(=O)N[C@@H](CCC(=O)O)C(=O)N[C@@H](Cc1ccc(O)cc1)C(=O)N[C@@H](Cc1c[nH]c2ccccc12)C(=O)N[C@H]1CCCCNC(=S)SC[C@@H](C(N)=O)NC(=O)[C@H](CO)NC(=O)[C@H](CC(C)C)NC(=O)[C@H](CC(C)C)NC1=O)[C@@H](C)O [PMI(8,12)-a]
α-helix (%) ([1]; Table 3): 33%
α-helix (%) ([1]; Table 7): 43.3%
half-life at 100 μM (cathepsin G): ~8 h
breakdown of the DTC structure in reduced glutathione [2]: no apparent breakdown of the DTC structure was observed over 24 h

CC(=O)N[C@H](C(=O)N[C@@H](CO)C(=O)N[C@@H](Cc1ccccc1)C(=O)N[C@@H](C)C(=O)N[C@@H](CCC(=O)O)C(=O)N[C@@H](Cc1ccc(O)cc1)C(=O)N[C@@H](Cc1c[nH]c2ccccc12)C(=O)N[C@H]1CSC(=S)NCCCC[C@@H](C(N)=O)NC(=O)[C@H](CO)NC(=O)[C@H](CC(C)C)NC(=O)[C@H](CC(C)C)NC1=O)[C@@H](C)O [PMI(8,12)-b]
α-helix (%) ([1]; Table 3): 0%
α-helix (%) ([1]; Table 7): 0.23%

CC(=O)N[C@H](C(=O)N[C@@H](CO)C(=O)N[C@@H](Cc1ccccc1)C(=O)N[C@@H](C)C(=O)N[C@@H](CCC(=O)O)C(=O)N[C@@H](Cc1ccc(O)cc1)C(=O)N[C@@H](Cc1c[nH]c2ccccc12)C(=O)N[C@@H](CC(N)=O)C(=O)N[C@@H](CC(C)C)C(=O)N[C@@H](CC(C)C)C(=O)N[C@@H](CO)C(=O)N1CCC[C@H]1C(N)=O)[C@@H](C)O [PMI-0, reference compound] (Ac-TSFAEYWNLLSP-NH2)
α-helix (%) ([1]; Table 3): 0%
α-helix (%) ([1]; Table 7): 9.77%

CC(=O)N[C@H](C(=O)N[C@@H](CO)C(=O)N[C@@H](Cc1ccccc1)C(=O)N[C@@H](CCCCN)C(=O)N[C@@H](CCC(N)=O)C(=O)N[C@@H](Cc1ccc(O)cc1)C(=O)N[C@@H](Cc1c[nH]c2ccccc12)C(=O)N[C@@H](CS)C(=O)N[C@@H](CC(C)C)C(=O)N[C@@H](CC(C)C)C(=O)N[C@@H](CO)C(=O)N[C@@H](CCCNC(=N)N)C(N)=O)[C@@H](C)O [^DTCPMI Ctrl., reference compound]
anti-proliferative activity against HCT116 p53+/+ (HCT116 p53^+/+): no anti-proliferative activity
intracellular localization / cellular uptake (confocal microscopy) (HCT116 p53^+/+ cells): diffused intracellular localization, demonstrating efficient cellular uptake
anti-proliferative activity against HCT116 p53-/- (HCT116 p53^−/−): no anti-proliferative activity
α-helix (%) ([1]; Table 7): 16.6%

B1: PMI(4,8)-a (peptide)
peptide: Ac-TSFKEYWCLLSP-NH2
modifications: bridge 4-8
notes: Co-crystal with MDMX is PDB 5VK1; also called PMI(4, 8)-1
IC50 (read off the curve) [3]: ~30 nM
IC50 (read off the curve) [4]: ~40 nM
IC50 (read off the curve) [5]: ~30 nM
IC50 (read off the curve) [6]: ~40 nM
IC50 (read off the curve) [7]: ~10 nM
IC50 (read off the curve) [8]: ~50 nM
IC50 (read off the curve) [9]: ~10 nM

Ac-TSFAEYWKLLSC-NH2 (bridge 8-12) [PMI(8,12)-a]
IC50 (read off the curve) [4]: ~30 nM
IC50 (read off the curve) [6]: ~30 nM
IC50 (read off the curve) [7]: ~10 nM
IC50 (read off the curve) [8]: 50 to 60 nM
IC50 (read off the curve) [9]: ~10 nM

B2: ^DTCp53 (DTC-stapled 16-27p53, Ser20Cys, staple Cys20-Lys24) (peptide, UniProt P04637 16-27, looked up)
peptide: QETFCDLWKLLP
modifications: bridge 5-9
notes: range 16-27; also called stapled p53 peptide
IC50 (read off the curve) [10]: ~300 nM
IC50 (read off the curve) [11]: ~100 nM
